The text below walks through data of publication PMC1888807 (2007).

The test system of test [1] is H24 (DNA, G4) TTAGGGTTAGGGTTAGGGTTAGGG
Kind of test: CD melting at 295 nm. The following applies: 150 mM Na+; 10 mM Tris-HCl pH 7.5; BMVC:H24 molar ratio 5.

The subject of test [2] is H78 (DNA, G4) TTAGGGTTAGGGTTAGGGTTAGGGTTAGGGTTAGGGTTAGGGTTAGGGTTAGGGTTAGGGTTAGGGTTAGGGTTAGGG
In words: melting. The conditions noted are these: 150 mM Na+; 10 mM Tris-HCl pH 7.5; BMVC:H78 molar ratio 10; ~51 to ~68 °C.

Molecules are shown by their SMILES.

As to `C[n+]1ccc(C=Cc2ccc3[nH]c4ccc(C=Cc5cc[n+](C)cc5)cc4c3c2)cc1`, the melting temperature increase is 18 °C in test [1] and ~ 17 °C in test [2].
